In brackets after ≈: the same amount, converted by molar mass.
Key:
Escherichia coli TEM = assay: MIC, standard agar-dilution assay; type: cell-based
Description: (§1) The formula I compounds have in vitro and in vivo activity against Gram-positive pathogenic bacteria. The MIC's were determined using a standard agar-dilution assays.

[1] = system: Staphylococcus aureus NRRL X1.1; assay: MIC, standard agar-dilution assay; type: cell-based
Description: as §1

Escherichia coli EC14 = assay: MIC, standard agar-dilution assay; type: cell-based
Description: as §1

[2] = system: Klebsiella pneumoniae KAE; assay: MIC, standard agar-dilution assay; type: cell-based
Description: as §1

[3] = system: Staphylococcus epidermidis EPI270; assay: MIC, standard agar-dilution assay; type: cell-based
Description: as §1

Escherichia coli N10 = assay: MIC, standard agar-dilution assay; type: cell-based
Description: as §1

[4] = system: Haemophilus influenzae C.L.; assay: MIC, standard agar-dilution assay; type: cell-based
Description: as §1

[5] = system: Haemophilus influenzae 76; assay: MIC, standard agar-dilution assay; type: cell-based
Description: as §1

[6] = system: Klebsiella pneumoniae X26; assay: MIC, standard agar-dilution assay; type: cell-based
Description: as §1

[7] = system: Staphylococcus aureus X400; assay: MIC, standard agar-dilution assay; type: cell-based
Description: as §1

[8] = system: Klebsiella pneumoniae X68; assay: MIC, standard agar-dilution assay; type: cell-based
Description: as §1

[9] = system: Staphylococcus aureus V41; assay: MIC, standard agar-dilution assay; type: cell-based
Description: as §1

[10] = system: Staphylococcus epidermidis 222; assay: MIC, standard agar-dilution assay; type: cell-based
Description: as §1

[11] = system: Streptococcus pyogenes C203; assay: MIC, standard agar-dilution assay; type: cell-based
Description: as §1

[12] = system: Streptococcus pneumoniae Park 1; type: cell-based
Description: as §1

[13] = system: Staphylococcus aureus S13E; type: cell-based
Description: as §1

Streptococcus pneumoniae = assay: In vivo activity, experimentally infected mice (ED50); settings: Streptococcus pneumoniae infection; doses administered subcutaneously to mice 1 and 4 hours postinfection
Enterococcus faecium X66 = assay: MIC, standard agar-dilution assay; type: cell-based
Description: as §1
^b Formerly Streptococcus faecium X66

[14] = system: vancomycin-resistant (Vanco^r) E. faecium and E. faecalis; assay: Susceptibility of vancomycin-resistant enterococci, agar-dilution MIC; type: cell-based; settings: for Geometric Mean MIC, Vanco^r Strains: n = 25 strains, end points read after 24-hour incubation
Description: (§2) End points were read after 24-hour incubation. The ratio was calculated by dividing the mean MIC of the compound against the vancomycin-resistant strains by the mean MIC of the compound against the vancomycin-susceptible strains.

[15] = system: vancomycin-susceptible (Vanco^s) E. faecium and E. faecalis; assay: Susceptibility of vancomycin-susceptible enterococci, agar-dilution MIC; type: cell-based; settings: n = 34 strains; end points read after 24-hour incubation
Description: as §2

[16] = system: Enterococcus faecalis 2041; assay: MIC, standard agar-dilution assay; type: cell-based
Description: as §1
^c Formerly Streptococcus faecalis 2041

Streptococcus pyogenes = assay: In vivo activity, experimentally infected mice (ED50); settings: Streptococcus pyogenes infection; doses administered subcutaneously to mice 1 and 4 hours postinfection
Staphylococcus aureus = assay: as above; settings: Staphylococcus aureus infection; doses administered subcutaneously to mice 1 and 4 hours postinfection

Row | Structure (SMILES) | MIC (Escherichia coli TEM) [µg/mL] | MIC [1] | MIC (Escherichia coli EC14) [µg/mL] | MIC [2] [µg/mL] | MIC [3] | MIC (Escherichia coli N10) [µg/mL] | MIC [4] [µg/mL] | MIC [5] [µg/mL] | MIC [6] [µg/mL] | MIC [7] | MIC [8] [µg/mL] | MIC [9] | MIC [10] | MIC [11] | MIC [12] | MIC [13] | ED50 (Streptococcus pneumoniae) [mg/kg/2] | MIC (Enterococcus faecium X66) | MIC [16] | ED50 (Streptococcus pyogenes) [mg/kg/2] | further results
1 | CCCCCCCCN[C@@]1(C)C[C@H](O[C@H]2[C@H](Oc3c4cc5cc3Oc3ccc(cc3Cl)[C@@H](O)[C@@H](NC(=O)[C@@H](CC(C)C)NC)C(=O)N[C@@H](CC(N)=O)C(=O)N[C@H]5C(=O)N[C@H]3C(=O)N[C@H](C(=O)N[C@H](C(=O)O)c5cc(O)cc(O)c5-c5cc3ccc5O)[C@H](O[C@H]3C[C@](C)(N)[C@@H](O)[C@H](C)O3)c3ccc(cc3)O4)O[C@H](CO)[C@@H](O)[C@@H]2O)O[C@@H](C)[C@@H]1O [Compound 1] | > 128 | 1 µg/mL (≈ 0.599 µM) | > 128 | > 128 | 1 µg/mL (≈ 0.599 µM) | > 128 | > 128 | > 128 | > 128 | 1 µg/mL (≈ 0.599 µM) | > 128 | 1 µg/mL (≈ 0.599 µM) | 1 µg/mL (≈ 0.599 µM) | .25 µg/mL (≈ 0.15 µM) | .5 µg/mL (≈ 0.299 µM) | .5 µg/mL (≈ 0.299 µM) | 0.43 | 1 µg/mL (≈ 0.599 µM) | 1 µg/mL (≈ 0.599 µM) | 0.43 | Ratio (mean MIC vancomycin-resistant strains / mean MIC vancomycin-susceptible strains) [14]: 4.9; Geometric Mean MIC, Vanco^r Strains [14]: 9.7 µg/mL; Geometric Mean MIC, Vanco^s Strains [15]: 2.2 µg/mL; ED50 (Staphylococcus aureus): 3.35 mg/kg/2
2 | CN[C@H](CC(C)C)C(=O)N[C@H]1C(=O)N[C@@H](CC(N)=O)C(=O)N[C@H]2C(=O)N[C@H]3C(=O)N[C@H](C(=O)N[C@H](C(=O)O)c4cc(O)cc(O)c4-c4cc3ccc4O)[C@H](O[C@H]3C[C@](C)(N)[C@@H](O)[C@H](C)O3)c3ccc(c(Cl)c3)Oc3cc2cc(c3O[C@@H]2O[C@H](CO)[C@@H](O)[C@H](O)[C@H]2O[C@H]2C[C@](C)(NCCc3ccccc3)[C@@H](O)[C@H](C)O2)Oc2ccc(cc2Cl)[C@H]1O [Compound 43] | > 128 | .25 µg/mL (≈ 0.147 µM) | > 128 | > 128 | 1 µg/mL (≈ 0.589 µM) | > 128 | > 128 | > 128 | > 128 | 1 µg/mL (≈ 0.589 µM) | > 128 | .5 µg/mL (≈ 0.295 µM) | .25 µg/mL (≈ 0.147 µM) | .5 µg/mL (≈ 0.295 µM) | .125 µg/mL (≈ 0.0737 µM) | 1 µg/mL (≈ 0.589 µM) | 0.11 | 1 µg/mL (≈ 0.589 µM) | .5 µg/mL (≈ 0.295 µM) | 0.38 | Ratio (mean MIC vancomycin-resistant strains / mean MIC vancomycin-susceptible strains) [14]: 5.2; Geometric Mean MIC, Vanco^r Strains [14]: 4.0 µg/mL; Geometric Mean MIC, Vanco^s Strains [15]: 0.77 µg/mL; ED50 (Staphylococcus aureus): 0.125 mg/kg/2
3 | CNC(CC(C)C)C(=O)NC1C(=O)NC(CC(N)=O)C(=O)NC2C(=O)NC3C(=O)NC(C(=O)NC(C(=O)O)c4cc(O)cc(O)c4-c4cc3ccc4O)C(OC3CC(C)(N)C(O)C(C)O3)c3ccc(c(Cl)c3)Oc3cc2cc(c3OC2OC(CO)C(O)C(O)C2OC2CC(C)(NCC(c3ccccc3)c3ccccc3)C(O)C(C)O2)Oc2ccc(cc2Cl)C1O (stereo not drawn) [Compound 45] | > 128 | .25 µg/mL (≈ 0.141 µM) | > 128 | > 128 | 1 µg/mL (≈ 0.564 µM) | > 128 | > 128 | > 128 | > 128 | .5 µg/mL (≈ 0.282 µM) | > 128 | .5 µg/mL (≈ 0.282 µM) | .5 µg/mL (≈ 0.282 µM) | .125 µg/mL (≈ 0.0705 µM) | .25 µg/mL (≈ 0.141 µM) | .5 µg/mL (≈ 0.282 µM) | 0.1 | .5 µg/mL (≈ 0.282 µM) | .5 µg/mL (≈ 0.282 µM) | 0.1 | Ratio (mean MIC vancomycin-resistant strains / mean MIC vancomycin-susceptible strains) [14]: 5.5; Geometric Mean MIC, Vanco^r Strains [14]: 9.4 µg/mL; Geometric Mean MIC, Vanco^s Strains [15]: 1.7 µg/mL; ED50 (Staphylococcus aureus): 0.77 mg/kg/2
4 | CNC(CC(C)C)C(=O)NC1C(=O)NC(CC(N)=O)C(=O)NC2C(=O)NC3C(=O)NC(C(=O)NC(C(=O)O)c4cc(O)cc(O)c4-c4cc3ccc4O)C(OC3CC(C)(NCc4ccccc4)C(O)C(C)O3)c3ccc(cc3)Oc3cc2cc(c3OC2OC(CO)C(O)C(O)C2O)Oc2ccc(cc2Cl)C1O (stereo not drawn) [Compound 70] | > 128 | 2 µg/mL (≈ 1.33 µM) | > 128 | > 128 | .5 µg/mL (≈ 0.332 µM) | > 128 | > 128 | > 128 | > 128 | 2 µg/mL (≈ 1.33 µM) | > 128 | 2 µg/mL (≈ 1.33 µM) | 2 µg/mL (≈ 1.33 µM) | 2 µg/mL (≈ 1.33 µM) | 2 µg/mL (≈ 1.33 µM) | 2 µg/mL (≈ 1.33 µM) | 3.76 | 2 µg/mL (≈ 1.33 µM) | 2 µg/mL (≈ 1.33 µM) | 2.38 | ED50 (Staphylococcus aureus): 4.10 mg/kg/2
5 | CNC(CC(C)C)C(=O)NC1C(=O)NC(CC(N)=O)C(=O)NC2C(=O)NC3C(=O)NC(C(=O)NC(C(=O)O)c4cc(O)cc(O)c4-c4cc3ccc4O)C(OC3CC(C)(NCc4ccccc4)C(O)C(C)O3)c3ccc(cc3)Oc3cc2cc(c3O)Oc2ccc(cc2Cl)C1O (stereo not drawn) [Compound 73] | > 128 | 1 µg/mL (≈ 0.745 µM) | > 128 | > 128 | .25 µg/mL (≈ 0.186 µM) | > 128 | > 128 | > 64 | > 128 | 1 µg/mL (≈ 0.745 µM) | > 128 | 1 µg/mL (≈ 0.745 µM) | 2 µg/mL (≈ 1.49 µM) | 1 µg/mL (≈ 0.745 µM) | 1 µg/mL (≈ 0.745 µM) | 1 µg/mL (≈ 0.745 µM) | > 8.0 | 1 µg/mL (≈ 0.745 µM) | 2 µg/mL (≈ 1.49 µM) | 7.30 | ED50 (Staphylococcus aureus): > 8.0 mg/kg/2
6 | CNC(CC(C)C)C(=O)NC1C(=O)NC(CC(N)=O)C(=O)NC2C(=O)NC3C(=O)NC(C(=O)NC(C(=O)O)c4cc(O)cc(O)c4-c4cc3ccc4O)C(OC3CC(C)(NCc4ccccc4)C(O)C(C)O3)c3ccc(c(Cl)c3)Oc3cc2cc(c3OC2OC(CO)C(O)C(O)C2O)Oc2ccc(cc2Cl)C1O (stereo not drawn) [Compound 76] | > 128 | .25 µg/mL (≈ 0.162 µM) | > 128 | > 128 | 2 µg/mL (≈ 1.3 µM) | > 128 | > 128 | > 128 | > 128 | .25 µg/mL (≈ 0.162 µM) | > 128 | .25 µg/mL (≈ 0.162 µM) | .5 µg/mL (≈ 0.325 µM) | .5 µg/mL (≈ 0.325 µM) | 1 µg/mL (≈ 0.65 µM) | .25 µg/mL (≈ 0.162 µM) | 0.42 | 1 µg/mL (≈ 0.65 µM) | 1 µg/mL (≈ 0.65 µM) | 0.62 | ED50 (Staphylococcus aureus): 0.87 mg/kg/2
